Data on 5 compounds can be found in the supplement of paper PMC10307832.

The structures appear in SMILES notation.

In one experiment the test system is NCI-H2023. Kind of experiment: relative viability (nuclei count vs DMSO), 5 days (fraction); higher = more cells survive. The settings on record: first compound 0.08 µM. The procedure, abridged:
(§1)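 Relative viability was taken as the ratio of nuclei in treated wells to nuclei in vehicle wells. Lung cancer cell lines in 1536-well plates received compounds by pin tool one day after seeding, either one drug alone or a fixed anchor-drug dose plus five library-drug doses (not always all listed) in √10 steps. Nuclei were counted on 4× images after 5 days of treatment, and values are medians of duplicate plates.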
Turning to `CCCCCCCCCCCC1=C(O)C(=O)C=C(O)C1=O` [Embelin] + O=C(CCCCCCC(=O)Nc1ccccc1)NO [Vorinostat] (partner 1 µM), the relative viability was 0.622.
Still for that read-out and setting: as for `CCCCCCCCCCCC1=C(O)C(=O)C=C(O)C1=O` [Embelin] + C[C@]1(O)C[C@@H](c2nc(-c3ccc4ccc(-c5ccccc5)nc4c3)c3c(N)nccn32)C1 [Linsitinib] (partner 1 µM), the figure is 0.707.
On the same count and under the same terms, as for `CCCCCCCCCCCC1=C(O)C(=O)C=C(O)C1=O` [Embelin] + CC(C)C[C@H](NC(=O)[C@H](Cc1ccccc1)NC(=O)c1cnccn1)B(O)O [Bortezomib] (partner 0.002 µM), the figure is 0.915.
Still for that read-out and setting: as for `CCCCCCCCCCCC1=C(O)C(=O)C=C(O)C1=O` [Embelin] + CS(=O)(=O)CCNCc1ccc(-c2ccc3ncnc(Nc4ccc(OCc5cccc(F)c5)c(Cl)c4)c3c2)o1 [Lapatinib] (partner 2 µM), the figure is 0.837; as for `CCCCCCCCCCCC1=C(O)C(=O)C=C(O)C1=O` [Embelin] + C[C@@H](Oc1cc(-c2cnn(C3CCNCC3)c2)cnc1N)c1c(Cl)ccc(F)c1Cl [Crizotinib] (partner 1 µM), 0.654.

Still in this experiment, the particulars now being: first compound 0.8 µM.
The compound `CCCCCCCCCCCC1=C(O)C(=O)C=C(O)C1=O` [Embelin] + O=C(CCCCCCC(=O)Nc1ccccc1)NO [Vorinostat] (partner 1 µM) registered a relative viability of 0.701.
Still for that read-out and setting: as for `CCCCCCCCCCCC1=C(O)C(=O)C=C(O)C1=O` [Embelin] + C[C@]1(O)C[C@@H](c2nc(-c3ccc4ccc(-c5ccccc5)nc4c3)c3c(N)nccn32)C1 [Linsitinib] (partner 1 µM), the figure is 0.66; as for `CCCCCCCCCCCC1=C(O)C(=O)C=C(O)C1=O` [Embelin] + CC(C)C[C@H](NC(=O)[C@H](Cc1ccccc1)NC(=O)c1cnccn1)B(O)O [Bortezomib] (partner 0.002 µM), 1.12; as for `CCCCCCCCCCCC1=C(O)C(=O)C=C(O)C1=O` [Embelin] + CS(=O)(=O)CCNCc1ccc(-c2ccc3ncnc(Nc4ccc(OCc5cccc(F)c5)c(Cl)c4)c3c2)o1 [Lapatinib] (partner 2 µM), 0.979.
The same measure, in the same setting: as for `CCCCCCCCCCCC1=C(O)C(=O)C=C(O)C1=O` [Embelin] + C[C@@H](Oc1cc(-c2cnn(C3CCNCC3)c2)cnc1N)c1c(Cl)ccc(F)c1Cl [Crizotinib] (partner 1 µM), the figure is 0.638.

Still in this experiment, the particulars now being: first compound 2.53 µM.
As to `CCCCCCCCCCCC1=C(O)C(=O)C=C(O)C1=O` [Embelin] + O=C(CCCCCCC(=O)Nc1ccccc1)NO [Vorinostat] (partner 1 µM), the relative viability was 0.565.
The same measure, in the same setting: the value for `CCCCCCCCCCCC1=C(O)C(=O)C=C(O)C1=O` [Embelin] + C[C@]1(O)C[C@@H](c2nc(-c3ccc4ccc(-c5ccccc5)nc4c3)c3c(N)nccn32)C1 [Linsitinib] (partner 1 µM) was 0.794; that for `CCCCCCCCCCCC1=C(O)C(=O)C=C(O)C1=O` [Embelin] + CC(C)C[C@H](NC(=O)[C@H](Cc1ccccc1)NC(=O)c1cnccn1)B(O)O [Bortezomib] (partner 0.002 µM) was 1.07.
On the same count and under the same terms, the value for `CCCCCCCCCCCC1=C(O)C(=O)C=C(O)C1=O` [Embelin] + CS(=O)(=O)CCNCc1ccc(-c2ccc3ncnc(Nc4ccc(OCc5cccc(F)c5)c(Cl)c4)c3c2)o1 [Lapatinib] (partner 2 µM) was 0.838; that for `CCCCCCCCCCCC1=C(O)C(=O)C=C(O)C1=O` [Embelin] + C[C@@H](Oc1cc(-c2cnn(C3CCNCC3)c2)cnc1N)c1c(Cl)ccc(F)c1Cl [Crizotinib] (partner 1 µM) was 0.801.

Still in this experiment, the particulars now being: first compound 8 µM.
The compound `CCCCCCCCCCCC1=C(O)C(=O)C=C(O)C1=O` [Embelin] + O=C(CCCCCCC(=O)Nc1ccccc1)NO [Vorinostat] (partner 1 µM) gave a relative viability of 0.392.
In turn, `CCCCCCCCCCCC1=C(O)C(=O)C=C(O)C1=O` [Embelin] + C[C@]1(O)C[C@@H](c2nc(-c3ccc4ccc(-c5ccccc5)nc4c3)c3c(N)nccn32)C1 [Linsitinib] (partner 1 µM) came in with a relative viability of 0.609.
On the same count and under the same terms, the value for `CCCCCCCCCCCC1=C(O)C(=O)C=C(O)C1=O` [Embelin] + CC(C)C[C@H](NC(=O)[C@H](Cc1ccccc1)NC(=O)c1cnccn1)B(O)O [Bortezomib] (partner 0.002 µM) was 0.578; that for `CCCCCCCCCCCC1=C(O)C(=O)C=C(O)C1=O` [Embelin] + CS(=O)(=O)CCNCc1ccc(-c2ccc3ncnc(Nc4ccc(OCc5cccc(F)c5)c(Cl)c4)c3c2)o1 [Lapatinib] (partner 2 µM) was 0.477.
On the same count and under the same terms, the value for `CCCCCCCCCCCC1=C(O)C(=O)C=C(O)C1=O` [Embelin] + C[C@@H](Oc1cc(-c2cnn(C3CCNCC3)c2)cnc1N)c1c(Cl)ccc(F)c1Cl [Crizotinib] (partner 1 µM) was 0.609.

In another experiment the test system is NCI-H661. The experiment is described as above. The settings on record: first compound 0.08 µM. The procedure, abridged: as §1
In turn, `CCCCCCCCCCCC1=C(O)C(=O)C=C(O)C1=O` [Embelin] + O=C(CCCCCCC(=O)Nc1ccccc1)NO [Vorinostat] (partner 1 µM) returned a relative viability of 0.787.
Still for that read-out and setting: as for `CCCCCCCCCCCC1=C(O)C(=O)C=C(O)C1=O` [Embelin] + C[C@]1(O)C[C@@H](c2nc(-c3ccc4ccc(-c5ccccc5)nc4c3)c3c(N)nccn32)C1 [Linsitinib] (partner 1 µM), the figure is 0.635.
Same read-out and setting: the value for `CCCCCCCCCCCC1=C(O)C(=O)C=C(O)C1=O` [Embelin] + CC(C)C[C@H](NC(=O)[C@H](Cc1ccccc1)NC(=O)c1cnccn1)B(O)O [Bortezomib] (partner 0.002 µM) was 0.961; that for `CCCCCCCCCCCC1=C(O)C(=O)C=C(O)C1=O` [Embelin] + CS(=O)(=O)CCNCc1ccc(-c2ccc3ncnc(Nc4ccc(OCc5cccc(F)c5)c(Cl)c4)c3c2)o1 [Lapatinib] (partner 2 µM) was 0.467.
Same read-out and setting: as for `CCCCCCCCCCCC1=C(O)C(=O)C=C(O)C1=O` [Embelin] + C[C@@H](Oc1cc(-c2cnn(C3CCNCC3)c2)cnc1N)c1c(Cl)ccc(F)c1Cl [Crizotinib] (partner 1 µM), the figure is 1.09.

The same experiment, now with this note: first compound 0.8 µM.
Turning to `CCCCCCCCCCCC1=C(O)C(=O)C=C(O)C1=O` [Embelin] + O=C(CCCCCCC(=O)Nc1ccccc1)NO [Vorinostat] (partner 1 µM), the relative viability is 0.826.
Still for that read-out and setting: the value for `CCCCCCCCCCCC1=C(O)C(=O)C=C(O)C1=O` [Embelin] + C[C@]1(O)C[C@@H](c2nc(-c3ccc4ccc(-c5ccccc5)nc4c3)c3c(N)nccn32)C1 [Linsitinib] (partner 1 µM) was 0.717; that for `CCCCCCCCCCCC1=C(O)C(=O)C=C(O)C1=O` [Embelin] + CC(C)C[C@H](NC(=O)[C@H](Cc1ccccc1)NC(=O)c1cnccn1)B(O)O [Bortezomib] (partner 0.002 µM) was 0.867.
